Biological target: T1, recombinant human Myt1 (Homo sapiens, UniProt Q99640)
T1 construct: full length PKMYT1 recombinant human protein expressed in insect cells
T1 sequence (Q99640 1-499): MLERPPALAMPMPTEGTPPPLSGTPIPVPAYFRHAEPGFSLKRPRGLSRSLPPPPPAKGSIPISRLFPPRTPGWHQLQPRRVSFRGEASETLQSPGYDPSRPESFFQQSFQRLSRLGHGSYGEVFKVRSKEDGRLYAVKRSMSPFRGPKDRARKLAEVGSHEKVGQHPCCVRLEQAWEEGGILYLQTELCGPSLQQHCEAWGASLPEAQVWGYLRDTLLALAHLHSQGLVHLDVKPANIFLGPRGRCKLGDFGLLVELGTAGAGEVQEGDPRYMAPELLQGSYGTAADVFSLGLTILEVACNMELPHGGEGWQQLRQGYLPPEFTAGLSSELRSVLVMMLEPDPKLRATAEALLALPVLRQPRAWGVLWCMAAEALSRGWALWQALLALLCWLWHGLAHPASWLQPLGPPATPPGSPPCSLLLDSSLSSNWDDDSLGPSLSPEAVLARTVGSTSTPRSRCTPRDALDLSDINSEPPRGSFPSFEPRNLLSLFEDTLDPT
Assay: Myt1 enzymatic assay (ADP-Glo kinase assay, IC50 and % max inhibition)
Assay type: biochemical
Settings: recombinant human Myt1 18 nM, ATP 10 μM
Experimental: Detection of Myt1 kinase activity utilized a recombinant human Myt1 kinase assay measuring the hydrolysis of ATP using a commercially available ADP-Glo Assay (ADP-Glo™ Kinase Assay from Promega, 10 000 assays, #V9102). […] After this, 5 μL of compounds (diluted in reaction buffer to 0.5% DMSO) was added to the microplate and the plate was spun briefly and incubated at 22° C. for 15 minutes. Ultra-Pure Adenosine Triphosphate (ATP) solution (ADP-Glo kit from Promega) was diluted in reaction buffer and 5 μL was added to the microplate, spun down briefly and incubated for 60 minutes at 30° C. […] After the 60-minute incubation, 15 μL of ADP-Glo reagent was added and the plate was spun briefly and sealed and incubated in the dark for 40 minutes at 22° C. […] Luminescence was read using the Envision (250 ms integration). The IC50 and the % max inhibition were calculated for each inhibitor compound tested.

Row | IC50 [µM] | SMILES
1 | < 0.01 | Cc1ccc(O)c(Cl)c1-n1c(N)c(C(N)=O)c2nc(C3CC3)cnc21 [Compound 104]
2 | 0.012 | CCCCc1cnc2c(n1)c(C(N)=O)c(N)n2-c1c(Cl)ccc(O)c1C [Compound 107]
3 | 0.016 | Cc1ccc(O)c(C)c1-n1c(N)c(C(N)=O)c2c(C)c(C)cnc21 [Compound 125]
4 | < 0.01 | Cc1ccc(O)c(C)c1-n1c(N)c(C(N)=O)c2cc(C(C)(C)O)cnc21 [Compound 131]
5 | < 0.01 | Cc1ccc(O)c(C)c1-n1c(N)c(C(N)=O)c2cc(C(C)C)cnc21 [Compound 138]
6 | < 0.01 | Cc1ccc(O)c(C)c1-n1c(N)c(C(N)=O)c2cc(Br)cnc21 [Compound 141]
7 | 0.055 | Cc1ccc(O)c(C)c1-n1c(N)c(C(N)=O)c2nccnc21 [Compound 147]
8 | < 0.01 | Cc1ccc(O)c(C)c1-n1c(N)c(C(N)=O)c2nc(C3CCC3)cnc21 [Compound 173, 6-amino-2-cyclobutyl-5-(3-hydroxy-2,6-dimethyl-phenyl)pyrrolo[2,3-b]pyrazine-7-carboxamide]
9 | < 0.01 | Cc1ccc(O)c(C)c1-n1c(N)c(C(N)=O)c2nc(C(C)(C)F)cnc21 [Compound 178, 6-amino-2-(1-fluoro-1-methyl-ethyl)-5-(3-hydroxy-2,6-dimethyl-phenyl)pyrrolo[2,3-b]pyrazine-7-carboxamide]
10 | < 0.01 | Cc1ccc2c(C(N)=O)c(N)n(-c3c(C)ccc(O)c3C)c2n1 [Compound 193]
11 | < 0.01 | Cc1ccc(O)c(C)c1-n1c(N)c(C(N)=O)c2nc(C3(C(F)(F)F)CC3)cnc21 [Compound 198, 6-amino-5-(3-hydroxy-2,6-dimethyl-phenyl)-2-[1-(trifluoromethyl)cyclopropyl]pyrrolo[2,3-b]pyrazine-7-carboxamide]
12 | < 0.01 | C=C(C)c1cnc2c(n1)c(C(N)=O)c(N)n2-c1c(C)ccc(O)c1C [Compound 202]
13 | 0.136 | Cc1ccc(O)c(C)c1-n1c(N)c(C(N)=O)c2nc(-c3nccs3)c(C#CC3CC3)nc21 [Compound 214, 6-amino-3-(2-cyclopropylethynyl)-5-(3-hydroxy-2,6-dimethyl-phenyl)-2-thiazol-2-yl-pyrrolo[2,3-b]pyrazine-7-carboxamide]
14 | 0.168 | Cc1ccc(O)c(C)c1-n1c(N)c(C(N)=O)c2nc(C#CCN3CCOCC3)cnc21 [Compound 217]
15 | 0.022 | Cc1ccc(O)c(C)c1-n1c(N)c(C(N)=O)c2ncc(C#CCN3CCOCC3)nc21 [Compound 218]
16 | 0.046 | Cc1ccc(O)c(C)c1-n1c(N)c(C(N)=O)c2nc(C#N)cnc21 [Compound 219, 6-amino-2-cyano-5-(3-hydroxy-2,6-dimethyl-phenyl)pyrrolo[2,3-b]pyrazine-7-carboxamide]
17 | < 0.01 | Cc1ccc(O)c(C)c1-n1c(N)c(C(N)=O)c2nc(C(N)=O)cnc21 [Compound 220, 6-amino-5-(3-hydroxy-2,6-dimethyl-phenyl)pyrrolo[2,3-b]pyrazine-2,7-dicarboxamide]
18 | 0.081 | Cc1ccc(O)c(C)c1-n1c(N)c(C(N)=O)c2cc(C(F)(F)F)cnc21 [Compound 221, 2-amino-1-(3-hydroxy-2,6-dimethyl-phenyl)-5-(trifluoromethyl)pyrrolo[2,3-b]pyridine-3-carboxamide]
19 | < 0.01 | Cc1ccc(O)c(C)c1-n1c(N)c(C(N)=O)c2ncc(C#CCC3CCOCC3)nc21 [Compound 222]
20 | 0.013 | Cc1ccc(O)c(C)c1-n1c(N)c(C(N)=O)c2ncc(C#CC3CCCCO3)nc21 (stereo not shown) [Compound 224]
21 | 0.034 | Cc1ccc(O)c(C)c1-n1c(N)c(C(N)=O)c2ncc(C#CC3CCOCC3)nc21 [Compound 225]
22 | 0.012 | Cc1ccc(O)c(C)c1-n1c(N)c(C(N)=O)c2ncc(C#CCN(C)C)nc21 [Compound 226]
23 | 0.021 | Cc1ccc(O)c(C)c1-n1c(N)c(C(N)=O)c2ncc(C#CC3CC3)nc21 [Compound 228]
24 | 0.052 | Cc1ccc(O)c(C)c1-n1c(N)c(C(N)=O)c2ncc(C#C[C@H](C)O)nc21 [Compound 229]
25 | 0.011 | Cc1ccc(O)c(C)c1-n1c(N)c(C(N)=O)c2ncc(C#CC3(C)COC3)nc21 [Compound 232]
26 | 0.014 | Cc1ccc(O)c(C)c1-n1c(N)c(C(N)=O)c2ncc(C#C[C@@H]3COC[C@H]3O)nc21 [Compound 234]

The remaining lines, values behind:

Row | SMILES | IC50 [µM]
27 | C=Cc1nc2c(C(N)=O)c(N)n(-c3c(C)ccc(O)c3C)c2nc1C(F)(F)F [Compound 102, 6-amino-5-(3-hydroxy-2,6-dimethyl-phenyl)-3-(trifluoromethyl)-2-vinyl-pyrrolo[2,3-b]pyrazine-7-carboxamide] | 0.013
28 | Cc1ccc(O)c(C)c1-n1cc(C(N)=O)c2cc(C3CC3)cnc21 [Compound 143] | < 0.01
29 | Cc1ccc(O)cc1-n1c(N)c(C(N)=O)c2nccnc21 [Compound 146] | 1.42
30 | Cc1ccc(O)cc1-n1c(N)c(C(N)=O)c2ncc(-c3ccccc3)nc21 [Compound 150, 6-amino-5-(5-hydroxy-2-methyl-phenyl)-3-phenyl-pyrrolo[2,3-b]pyrazine-7-carboxamide] | 1.35
31 | Cc1ccc(O)cc1-n1c(N)c(C(N)=O)c2ncc(OCc3ccccc3)nc21 [Compound 151] | 2.75
32 | Cc1ccc(O)cc1-n1c(N)c(C(N)=O)c2ncc(OCc3cccnc3)nc21 [Compound 153, 6-amino-5-(5-hydroxy-2-methyl-phenyl)-3-(3-pyridylmethoxy)pyrrolo[2,3-b]pyrazine-7-carboxamide] | 3.55
33 | Cc1ccc(O)cc1-n1c(N)c(C(N)=O)c2ncc(OCCN3CCOCC3)nc21 [Compound 154] | 6.35
34 | Cc1ccc(O)cc1-n1c(N)c(C(N)=O)c2ncc(-c3cn[nH]c3)nc21 [Compound 155] | 1.02
35 | Cc1ccc(O)cc1-n1c(N)c(C(N)=O)c2ncc(-c3cccc(C(N)=O)c3)nc21 [Compound 156] | 0.465
36 | CC(=O)Nc1cccc(-c2cnc3c(C(N)=O)c(N)n(-c4cc(O)ccc4C)c3n2)c1 [Compound 157] | 1.24
37 | Cc1ccc(O)cc1-n1c(N)c(C(N)=O)c2ncc(C#Cc3ccccn3)nc21 [Compound 158] | 0.953
38 | Cc1ccc(O)cc1-n1c(N)c(C(N)=O)c2ncc(CCc3ccccn3)nc21 [Compound 159] | 1.72
39 | Cc1ccc(O)cc1-n1c(N)c(C(N)=O)c2ncc(C#Cc3cccnc3)nc21 [Compound 160, 6-amino-5-(5-hydroxy-2-methyl-phenyl)-3-[2-(3-pyridyl)ethynyl]pyrrolo[2,3-b]pyrazine-7-carboxamide] | 0.554
40 | Cc1ccc(O)cc1-n1c(N)c(C(N)=O)c2ncc(CCCN3CCOCC3)nc21 [Compound 161] | 0.671
41 | Cc1ccc(O)cc1-n1c(N)c(C(N)=O)c2ncc(CCc3cccnc3)nc21 [Compound 162, 6-amino-5-(5-hydroxy-2-methyl-phenyl)-3-[2-(3-pyridyl)ethyl]pyrrolo[2,3-b]pyrazine-7-carboxamide] | 0.596
42 | Cc1ccc(O)cc1-n1c(N)c(C(N)=O)c2ncc(C#CCN3CCOCC3)nc21 [Compound 163] | 0.334
43 | Cc1cnc2c(C(N)=O)c(N)n(-c3cc(O)ccc3C)c2n1 [Compound 167] | 0.361
44 | Cc1nc2c(C(N)=O)c(N)n(-c3c(Cl)ccc(O)c3C)c2nc1C [Compound 168] | < 0.01
45 | Cc1ccc(O)c(C)c1-n1c(N)c(C(N)=O)c2cc(Br)c(C)nc21 [Compound 187] | < 0.01
46 | Cc1ccc(O)c(C)c1-n1cc(C(N)=O)c2nc(C)c(C)nc21 [Compound 209, 5-(3-hydroxy-2,6-dimethyl-phenyl)-2,3-dimethyl-pyrrolo[2,3-b]pyrazine-7-carboxamide] | 0.028
47 | Cc1ccc(O)cc1-n1c(N)c(C(N)=O)c2ncc(C(F)(F)F)cc21 [Compound 212, 2-amino-1-(5-hydroxy-2-methyl-phenyl)-6-(trifluoromethyl)pyrrolo[3,2-b]pyridine-3-carboxamide] | 3.44
48 | Cc1ccc(O)cc1-n1c(N)c(C(N)=O)c2nc(C(F)(F)F)ccc21 [Compound 213] | 0.195
49 | Cc1ccc(O)c(C)c1-n1c(N)c(C(N)=O)c2nc(C#CCN3CCOCC3)c(C#CCN3CCOCC3)nc21 [Compound 215] | 0.024
50 | Cc1ccc(O)c(C)c1-n1c(N)c(C(N)=O)c2nc(-c3nccs3)c(C#CCN3CCOCC3)nc21 [Compound 216] | 0.076
51 | Cc1ccc(O)c(C)c1-n1c(N)c(C(N)=O)c2ncc(C#CC(C)(C)NS(C)(=O)=O)nc21 [Compound 223] | 0.015
52 | Cc1ccc(O)c(C)c1-n1c(N)c(C(N)=O)c2ncc(C#Cc3ccccn3)nc21 [Compound 227] | 0.05
53 | Cc1ccc(O)c(C)c1-n1c(N)c(C(N)=O)c2ncc(C#Cc3ccccc3)nc21 [Compound 230] | 0.368
54 | Cc1ccc(O)c(C)c1-n1c(N)c(C(N)=O)c2ncc(C#CC3(O)CCOCC3)nc21 [Compound 231] | < 0.01
55 | Cc1ccc(O)c(C)c1-n1c(N)c(C(N)=O)c2ncc(C#C[C@@H]3OCC[C@@H]3Cl)nc21 [Compound 233] | 0.01
